Literature values as cited in patent publication US20070213265A1, “Kunitz-type sequences and polypeptides” (Novo Nordisk A/S, priority 2001, published 2007).
Blank lines part the entries; values can stand above or below the substance they belong to.

Columns and labels:
plasma kallikrein = plasma kallikrein (Homo sapiens, UniProt P03952)
[1] = high doses; cardiac surgery, including cardiopulmonary bypass operations
granulocyte elastase = granulocyte elastase (Homo sapiens, UniProt P08246)
Sequence of granulocyte elastase (P08246 30-267): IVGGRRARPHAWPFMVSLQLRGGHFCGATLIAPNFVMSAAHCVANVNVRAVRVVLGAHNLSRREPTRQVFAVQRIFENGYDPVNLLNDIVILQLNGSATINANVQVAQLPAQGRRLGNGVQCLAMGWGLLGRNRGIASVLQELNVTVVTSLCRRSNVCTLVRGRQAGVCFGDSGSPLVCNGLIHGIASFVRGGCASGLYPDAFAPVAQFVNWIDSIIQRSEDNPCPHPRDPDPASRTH

Sequence of plasma kallikrein (P03952 20-638, species assumed): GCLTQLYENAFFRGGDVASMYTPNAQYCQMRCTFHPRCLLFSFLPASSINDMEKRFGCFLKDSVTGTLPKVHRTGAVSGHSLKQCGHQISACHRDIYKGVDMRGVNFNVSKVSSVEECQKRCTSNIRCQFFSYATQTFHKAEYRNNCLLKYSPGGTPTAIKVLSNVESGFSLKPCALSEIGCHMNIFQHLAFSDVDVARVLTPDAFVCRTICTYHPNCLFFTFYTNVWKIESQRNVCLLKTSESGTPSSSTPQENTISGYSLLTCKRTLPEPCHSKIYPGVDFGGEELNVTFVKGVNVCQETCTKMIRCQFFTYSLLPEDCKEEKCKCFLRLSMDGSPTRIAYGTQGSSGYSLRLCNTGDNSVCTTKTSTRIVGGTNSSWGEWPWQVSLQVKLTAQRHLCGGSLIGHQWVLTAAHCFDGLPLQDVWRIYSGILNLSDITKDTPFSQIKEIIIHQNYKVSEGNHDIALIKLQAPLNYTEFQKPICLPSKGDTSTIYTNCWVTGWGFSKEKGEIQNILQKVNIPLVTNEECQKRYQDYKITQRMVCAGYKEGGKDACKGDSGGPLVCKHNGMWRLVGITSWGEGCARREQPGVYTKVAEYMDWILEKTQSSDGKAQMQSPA

plasma kallikrein inhibitory effect (plasma kallikrein): excellent
Substance: aprotinin (3-58, Arg15, Ala17, Ser42)

effect on elastase (elastase): weak effect
Substance: Aprotinin (1-58, Ala15)

Substance: aprotinin
blood loss [1]: significantly reduces blood loss

Substance: aprotinin(1-58, Val15)
inhibitory effect on collagenase (collagenase): inhibitory effect
selectivity for granulocyte elastase (granulocyte elastase): relatively high selectivity
